pEC50: −log10 of the molar value. Values after ≈ are worked out from the molar mass of the structure shown. Where two headings read alike, the source gives them in different places.
Tests used:
NOD2 = biological target: T1, NOD2 (Homo sapiens, UniProt Q9HC29); assay: NF-κB transcriptional activity (SEAP reporter) in HEK-Blue NOD2 cells; assay type: cell-based; settings: 18 h
T1 construct: host or cells: HEK-Blue NOD2 (HEK293-derived)
Excerpt: HEK-Blue NOD1 (Cat. code: hkb-hnod1), NOD2 (Cat. code: hkb-hnod2), and TLR7 (Cat. code: hkb-htlr7) cell lines (Invivogen, San Diego, CA) are derived from HEK293 cells by co-transfection of the hNOD1, hNOD2, or hTLR7 genes, respectively, and a nuclear factor-κB (NF-κB)-inducible secreted embryonic alkaline phosphatase (SEAP) reporter gene. Following activation of the respective receptors, the resulting NF-κB induces the production of SEAP, the levels of which can be quantified colorimetrically. […] All of the subsequent passages were cultured in medium additionally supplemented with 100 μg/mL Zeocin (Invivogen) and 30 μg/mL Blasticidin (Invivogen) for HEK-Blue NOD1 and NOD2 cells, or with 100 μg/mL Zeocin (Invivogen) and 10 μg/mL Blasticidin (Invivogen) for HEK-Blue TLR7 cells.
After 18 h of incubation (37 °C, 5% CO2), SEAP activity was determined spectrophotometrically as absorbance at 630 nm (BioTek Synergy microplate reader; Winooski, VT). EC50 values were calculated using the Prism software (version 9; GraphPad Software, CA).

human PBMCs = assay type: cell-based
K562 cells = assay: PBMC cytotoxicity against K562 cancer cells; assay type: cell-based
Method: (§1) K562 cells are a chronic myelogenous leukemia cell line (Cat. code: CCL-243; ATCC, Manassas, VA)[60] and MEC1 cells are a B-chronic lymphocytic leukemia cell line (Cat. code: ACC 497; DSMZ GmbH, Braunschweig, Germany).[61]
(§2) The PBMC cytotoxicity assays using K562 and MEC1 cells were performed as described previously, with some modifications.[64] PBMCs were seeded (4 × 10^5 cells/well) in duplicate in 96-well U-bottom plates and treated with the compounds (1 nM–1 μM) or vehicle (0.1% DMSO) for 18 h. […] Cells that were positive for both CFSE and Sytox blue were defined as dead K562 and MEC1 cells. The gating strategy is described in Figure S4. PBMCs alone and CFSE-labeled cancer cells alone were also treated with the compounds at the same concentrations and stained with Sytox blue to exclude any direct cytotoxicity of the compounds toward the PBMCs and cancer cells. Statistical significance was determined with one-way ANOVA with subsequent Bonferroni’s multiple comparisons test.

MEC1 cells = assay: PBMC cytotoxicity against MEC1 cancer cells; assay type: cell-based, human; settings: PBMCs stimulated 18 h, 1 μM; 4 h coincubation, effector:target 40:1
Method: as §1, §2

[1] = Kinetic solubility measurement; assay type: physicochemical
Method: The content of DMSO in all solutions was fixed to 2% by adding the respective amounts of DMSO. The column used was Waters Acquity UPLC BEH C18 (1.7 μm, 2.1 × 50 mm^2). […] The column was thermostated at 40 °C.

T1 sequence (Q9HC29 whole entry): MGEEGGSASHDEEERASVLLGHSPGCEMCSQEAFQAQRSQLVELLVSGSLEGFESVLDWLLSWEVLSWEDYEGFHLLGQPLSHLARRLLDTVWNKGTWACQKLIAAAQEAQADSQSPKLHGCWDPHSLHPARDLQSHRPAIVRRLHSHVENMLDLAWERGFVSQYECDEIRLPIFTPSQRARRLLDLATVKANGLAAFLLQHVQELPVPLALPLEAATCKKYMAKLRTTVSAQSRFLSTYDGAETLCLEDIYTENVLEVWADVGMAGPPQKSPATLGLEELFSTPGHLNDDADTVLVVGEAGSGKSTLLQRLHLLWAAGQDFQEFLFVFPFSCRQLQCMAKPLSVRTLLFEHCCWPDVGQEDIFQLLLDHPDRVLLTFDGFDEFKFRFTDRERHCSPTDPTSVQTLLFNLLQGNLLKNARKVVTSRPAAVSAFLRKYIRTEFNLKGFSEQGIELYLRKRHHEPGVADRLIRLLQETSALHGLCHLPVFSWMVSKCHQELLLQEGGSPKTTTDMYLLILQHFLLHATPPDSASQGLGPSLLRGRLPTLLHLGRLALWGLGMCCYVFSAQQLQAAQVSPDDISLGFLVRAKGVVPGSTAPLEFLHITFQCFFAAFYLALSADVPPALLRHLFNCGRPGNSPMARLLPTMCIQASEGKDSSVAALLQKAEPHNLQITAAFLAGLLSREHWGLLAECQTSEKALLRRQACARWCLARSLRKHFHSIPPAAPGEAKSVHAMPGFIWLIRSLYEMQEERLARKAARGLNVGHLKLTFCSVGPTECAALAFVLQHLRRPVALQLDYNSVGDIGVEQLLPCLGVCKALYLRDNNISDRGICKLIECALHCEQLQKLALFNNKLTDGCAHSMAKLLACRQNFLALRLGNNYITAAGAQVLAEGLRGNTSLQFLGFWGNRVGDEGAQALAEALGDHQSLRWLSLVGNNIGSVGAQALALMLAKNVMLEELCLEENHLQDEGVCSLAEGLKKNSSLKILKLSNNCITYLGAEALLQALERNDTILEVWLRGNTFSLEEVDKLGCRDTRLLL

CCCCOc1nc(N)c2nc(O)n(Cc3ccc(C(=O)NCCOCCNC(=O)CC[C@@H](NC(=O)[C@@H](NC(=O)CNC(=O)/C=C/c4ccc(O)c(OC)c4)C(C)C)C(=O)OCC)cc3)c2n1 [Compound 4, Ethyl N5-(2-(2-(4-((6-amino-2-butoxy-8-hydroxy-9H-purin-9-yl)methyl)benzamido)ethoxy)ethyl)-N2-((E)-3-(4-hydroxy-3-methoxyphenyl)acryloyl)glycyl-L-valyl-D-glutaminate]
NOD2 activation at the highest concentration tested (NOD2; 10 μM): activated NOD2 only to a minor extent | pEC50 (NOD2; eight concentrations 1 nM to 10 μM, NA, not active): < 5.00 | Genes in KEGG pathway, 4-enriched (human PBMCs; Chemokine signaling pathway (total 182)): 40 | Genes in KEGG pathway, 4-enriched (human PBMCs; Hematopoietic cell lineage (total 97)): 31 | Genes in KEGG pathway, 4-enriched (human PBMCs; Influenza A (total 182)): 33 | Genes in KEGG pathway, 4-enriched (human PBMCs; NF-kappa B signaling pathway (total 107)): 25 | transcription of IFN-γ and both IL-12 subunits (IL12A, IL12B) (human PBMCs; PBMCs, 1 μM, 18 h): strongly upregulated | transcription of IL-17A, IL-17F, IL-22 and IL-26 (human PBMCs; PBMCs, 1 μM, 18 h): induced transcription | transcription of Th2-associated genes (IL-4, IL-5, IL-13, STAT6, GATA3) (human PBMCs; PBMCs, 1 μM, 18 h): remained unchanged | number of significantly downregulated genes (human PBMCs; PBMCs, three donors, 1 μM, 18 h, FDR <0.05, fold-change <0.5): 877 | number of significantly upregulated genes (human PBMCs; PBMCs, three donors, 1 μM, 18 h, […]): 962 | Genes in KEGG pathway, 4-enriched (human PBMCs; Pathways in cancer (total 395)): 56 | Genes in KEGG pathway, 4-enriched (human PBMCs; Phagosome (total 168)): 33 | Genes in KEGG pathway, 4-enriched (human PBMCs; Rheumatoid arthritis (total 99)): 25 | Genes in KEGG pathway, 4-enriched (human PBMCs; TNF signaling pathway (total 115)): 28 | Genes in KEGG pathway, 4-enriched (human PBMCs; Transcriptional misregulation in cancer (total 204)): 37 | cytolytic activity of PBMCs against K562 cells (K562 cells; PBMCs stimulated 18 h, 1 μM, 4 h coincubation, effector:target 40:1): significantly enhanced | lowest concentration with significant effect on PBMC cytotoxicity (K562 cells; tested 1 nM-1 μM, cancer cell line not specified (K562 or MEC1, Figure S5)): 10 nM | cytolytic activity of PBMCs against MEC1 cells (MEC1 cells): significantly enhanced | fold higher solubility of 4 than 3 ([1]; kinetic solubility, Table S2): approximately 2 fold | solubility at 2 h ([1]; phosphate-buffered saline, aqueous buffer, kinetic from dmso stock, kinetic, PBS pH 7.4, 2% DMSO, 2 h room temperature): 58.2 µM (≈ 54.3 µg/mL)
